From PubChem BioAssay (NCI)
“And” between values parts separate entries of the source, which are not always exact repeats. Equal values may be shown once.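 Step 1: Grow cells in 96-well plates. Step 2: Expose to compound for 48 hours at 5 concentrations. Step 3: Interpolate endpoints linearly; if unreached, use highest concentration. The concentration for 50% growth inhibition is given as GI50. At the TGI there is no net growth.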

Assays:
Assay in all cases: DTP human tumour cell line panel, 48 h
[1] = test system: COLO 205 colon
[2] = test system: SNB-19 CNS
[3] = test system: UACC-62 melanoma
[4] = test system: ACHN renal
[5] = test system: CAKI-1 renal
[6] = test system: SF-539 CNS
[7] = test system: HCT-116 colon
[8] = test system: K-562 leukemia
[9] = test system: OVCAR-5 ovarian
[10] = test system: MDA-MB-231 breast

SMILES	GI50 [1] [µM]	TGI [1]	GI50 [2]	TGI [2]	GI50 [3] [µM]	TGI [3]	GI50 [4] [µM]	TGI [4] [µM]	GI50 [5] [µM]	TGI [5] [µM]	GI50 [6] [µM]	TGI [6]	GI50 [7] [µM]	TGI [7]	GI50 [8]	TGI [8] [µM]	GI50 [9] [µM]	TGI [9]	GI50 [10] [µM]	TGI [10] [µM]
N.N.NCCCCN.O=C([O-])CC(=O)[O-].O=C([O-])CC(=O)[O-].[Pt+4].[Pt+4]	> 100	> 100 µM	> 100 µM	> 100 µM	77.4	> 100 µM	26.9	> 100	79	> 100	76.4	> 100 µM	> 100	> 100 µM	> 100 µM	> 100	> 100	> 100 µM	–	–
O=C1C2c3[nH]c4ccccc4c3C3CCSCC3C2C(=O)N1c1ccccc1 (stereo not drawn)	–	> 100 µM	–	> 100 µM	–	> 100 µM	–	> 100	–	> 100	–	> 100 µM	–	> 100 µM	–	> 100	–	> 100 µM	–	–
O=C(Nc1ccccc1)O/N=C1/CCCC/C1=C\c1ccccc1	–	28.2 µM	–	–	–	30 µM	–	30.5	–	29.2	–	31.7 µM	–	26.6 µM	–	29.1	–	63.9 µM	–	–
C=C1C(=O)O[C@H]2[C@H]1CC/C(COC(=O)/C=C/c1cccnc1)=C\CC[C@@]1(C)O[C@@H]21	1.06	2.82 µM	9.05 µM	28.4 µM	1.89	5 µM	–	–	–	–	1.5	2.97 µM	0.371	1.52 µM	1.04 µM	6.13	2.11	5.94 µM	2	5.04
COc1ccc(/C=C/C(=O)/C=C(/C=C/c2ccc(OC)c(OC)c2)OB(F)F)cc1OC	0.37	1.57 µM	1.63 µM	5.73 µM	0.574	2.16 µM	0.352	1.98	–	–	1.18	3.63 µM	0.321	1.09 µM	0.463 µM	> 100	2.26	5.86 µM	0.621	4.08
C=CC[P@@]1(=O)O[C@H](c2ccccc2)C(C)N1C(C)C (stereo partly drawn)	–	–	–	> 100 µM	–	> 100 µM	–	> 100	–	–	–	> 100 µM	–	–	–	> 100	–	> 100 µM	–	–
CC1=CCP(C(F)(F)F)P(C(F)(F)F)C1 (stereo not drawn)	–	> 100 µM	–	> 100 µM	–	> 100 µM	–	> 100	–	> 100	–	> 100 µM	–	> 100 µM	–	> 100	–	> 100 µM	–	–
CC1(c2ccccc2)CC12C(=O)NC(=O)NC2=O (stereo not drawn)	–	> 100 µM	–	> 100 µM	–	> 100 µM	–	> 100	–	> 100	–	> 100 µM	–	> 100 µM	–	> 100	–	> 100 µM	–	–
Cc1c2cc[n+](C)cc2c(C)c2c1[nH]c1ccc(OC(C)C)cc12	–	3.08 µM and 2.97 µM	0.776 µM and 1.91 µM	5.6 µM and 14.3 µM	–	8.04 µM and 12.7 µM	–	> 100	–	> 35.1	–	9.82 µM and 12.5 µM	–	> 35.8 µM and 20.4 µM	1.02 µM and 2.55 µM	> 46.4	–	> 100 µM and 67.3 µM	–	–
COc1c2c(c(OC)c3c(=O)cc(C/C(=N/NC(=O)C[n+]4ccccc4)C(=O)Nc4cc(C)ccc4C)oc13)OCO2	–	> 100 µM	–	> 100 µM	–	> 100 µM	–	> 100	–	> 100	–	> 100 µM	–	> 100 µM	–	> 100	–	> 100 µM	–	–
CC(C)(C)c1ccc(Oc2ccc(C#N)c(C#N)c2)c(C(C)(C)C)c1	–	> 59.1 µM	–	> 100 µM	–	> 100 µM	–	> 100	–	> 100	–	> 100 µM	–	> 60.1 µM	–	> 64.9	–	> 100 µM	–	–
Brc1nc2c3ccccc3ncn2c1Br	–	29.8 µM	–	> 100 µM	–	49.2 µM	–	50.9	–	79.5	–	> 100 µM	–	> 100 µM	–	> 100	–	> 100 µM	–	–
Cc1cc(Cl)ccc1NC(=O)/C(Cc1nc2ccc(C(=O)c3ccccc3)cc2[nH]c1=O)=N/NC(=O)c1ccncc1	–	–	–	> 100 µM	–	> 100 µM	–	> 100	–	> 100	–	> 100 µM	–	> 100 µM	–	> 100	–	> 100 µM	–	> 100
CCOC(=O)c1[nH]c2cccc3c2c1CC(Br)C3=O (stereo not drawn)	–	27.2 µM	–	30.7 µM	–	–	–	20.2	–	23.6	–	30.4 µM	–	7.79 µM	–	–	–	34.5 µM	–	33.6
CC1=C(C(=O)Nc2ccc(F)c(Cl)c2)C(c2cccc(O)c2)NC(=S)N1 (stereo not drawn)	22.2	> 50 µM	> 50 µM	> 50 µM	11.9	36.6 µM	24.5	> 50	> 50	> 50	–	–	34.2	> 50 µM	16 µM	42.5	17	> 50 µM	10.9	30.2
COCC1N=C(c2ccc(OC)c(OCc3ccccc3)c2OC)O[C@H]1c1ccccc1 (stereo partly drawn)	–	41.8 µM	–	> 100 µM	–	51.5 µM	–	52.4	–	–	–	35.8 µM	–	34.5 µM	–	> 100	–	71.2 µM	–	–
CN(C)CCCNC(=O)c1cc(NC(=O)c2cc(NC(=O)CCCN3c4ccccc4C=Cc4ccccc43)cn2C)cn1C	–	–	6.32 µM	> 100 µM	–	–	14.7	33.6	18.5	43.9	5.57	33.5 µM	3.35	> 100 µM	2.12 µM	4.97	19.7	46.9 µM	4.04	96
CC(=O)CC(=O)CCCC(=O)Nc1ccc(Cl)cc1Cl	–	> 100 µM	–	> 100 µM	–	> 100 µM	–	> 100	–	> 100	–	> 100 µM	–	> 100 µM	–	> 100	–	> 100 µM	–	–
CN(C)CCN1N=Nc2cccc3cccc1c23	–	> 100 µM	–	> 100 µM	–	> 100 µM	–	> 100	–	> 100	–	> 100 µM	–	> 100 µM	–	> 100	–	> 100 µM	–	–
Nc1ccc(CCN2CCN(c3cccc(C(F)(F)F)c3)CC2)cc1	–	> 100 µM	–	> 100 µM	–	> 100 µM	–	> 100	–	> 100	–	> 100 µM	–	> 100 µM	–	> 100	–	> 100 µM	–	–
COC(=O)C/C(C)=C/[C@@H](O)[C@H]1O[C@@H]2CC/C(Cl)=C/C/C=C(/C)[C@H](OC(C)=O)CC(=O)O[C@@H]1C2	1.72	7.51 µM	2.28 µM	12.7 µM	0.694	1.67 µM	1.16	4.51	–	–	1.32	7.95 µM	3.22	7.85 µM	4.34 µM	> 25	8.17	> 25 µM	4.07	11.8

SMILES	GI50 [1] [µM]	TGI [1]	GI50 [2]	TGI [2]	GI50 [3] [µM]	TGI [3]	GI50 [4] [µM]	TGI [4] [µM]	GI50 [5] [µM]	TGI [5] [µM]	GI50 [6] [µM]	TGI [6]	GI50 [7] [µM]	TGI [7]	GI50 [8]	TGI [8] [µM]	GI50 [9] [µM]	TGI [9]	GI50 [10] [µM]	TGI [10] [µM]
CC1=C2C(=CC(C)(CO)C2O)C(=O)C(C)(O)C12CC2 (stereo not drawn)	0.00454	0.0115 µM	–	0.0422 µM	–	0.00784 µM	–	0.0132	–	0.0183	–	0.0152 µM	–	0.0478 µM	–	0.105	–	0.0258 µM	–	–
O=[N+]([O-])c1ccc(OCCNc2cccc3ccccc23)cc1	–	> 100 µM	–	> 100 µM	–	> 100 µM	–	> 100	–	> 100	–	> 100 µM	–	> 100 µM	–	> 100	–	> 100 µM	–	–
O=[N+]([O-])c1ccc2c(c1)OCCOCCOc1ccc([N+](=O)[O-])cc1OCCOCCO2	–	> 100 µM	–	> 100 µM	–	> 100 µM	–	> 100	–	> 100	–	> 100 µM	–	> 100 µM	–	> 100	–	> 100 µM	–	–
CN1NC2=NCCN=C3NN(C)C(=NCCN=C1S2)S3	–	> 100 µM	–	> 100 µM	–	> 100 µM	–	> 100	–	–	–	> 100 µM	–	> 100 µM	–	> 100	–	> 100 µM	–	–
COC1=C(OC)C(=O)c2cc(SC)c(=O)c(SC)cc2C1=O	–	> 100 µM	–	60.7 µM	–	4.45 µM	–	28.9	–	> 100	–	24.8 µM	–	46.3 µM	–	33.3	–	–	–	–
COc1cccc2c(Nc3ccc(C(=O)NCCNCCO)cc3)cc(-c3ccccc3)nc12	23.6	86.6 µM	–	–	62.4	> 100 µM	–	–	> 100	> 100	40.9	> 100 µM	34.6	> 100 µM	22.3 µM	64.9	76.7	> 100 µM	25.5	73.5
COC(=O)C(=O)C(C(=O)C(=O)Nc1ccc([N+](=O)[O-])cc1[N+](=O)[O-])c1nc2ccc([N+](=O)[O-])cc2[nH]c1=O (stereo not drawn)	–	> 100 µM	–	> 100 µM	–	> 100 µM	–	> 100	–	> 100	–	–	–	> 100 µM	–	> 100	–	> 100 µM	–	–
CCCOP1(=O)C=C(C)C(Cl)=C(C)C1 (stereo not drawn)	–	24.4 µM	–	> 100 µM	–	32.4 µM	–	52.5	–	–	–	63.8 µM	–	47.5 µM	–	> 100	–	77.4 µM	–	–
CN(OC(=O)CC(=O)c1ccccc1)C(=O)Cc1ccccc1	–	> 100 µM	–	> 100 µM	–	> 100 µM	–	> 100	–	> 100	–	> 100 µM	–	> 100 µM	–	–	–	> 100 µM	–	–
O=C1C(c2ccc(Cl)cc2)=[N+]([O-])c2ccccc21	–	32.4 µM	–	53.8 µM	–	32.2 µM	–	28.5	–	–	–	36 µM	–	27.8 µM	–	68.5	–	48.7 µM	–	–
COC1CCC2C(=O)CCCC2O1 (stereo not drawn)	–	> 100 µM	–	> 100 µM	–	> 100 µM	–	> 100	–	> 100	–	> 100 µM	–	> 100 µM	–	> 100	–	> 100 µM	–	–
COc1cc(-c2cc(C(=O)Nc3nc4ccccc4s3)nc3cc(-c4ccccc4)nn23)cc(OC)c1OC	–	–	16.7 µM	69.5 µM	14.4	80.4 µM	45.7	> 100	53.7	> 100	1.31	9.09 µM	4.51	> 100 µM	25.4 µM	> 100	> 100	> 100 µM	5.63	69.2
O=NN(CCCl)C(=O)NCc1ccc[n+]([O-])c1	–	> 100 µM	–	–	–	> 100 µM	–	> 100	–	> 100	–	> 100 µM	–	> 100 µM	–	> 100	–	> 100 µM	–	–
Cc1ccc(C2=[N+]([O-])c3ccccc3C2=O)cc1	–	> 72.8 µM	–	> 77.2 µM	–	33.1 µM	–	32	–	> 100	–	77.7 µM	–	> 54.4 µM	–	41	–	> 89.9 µM	–	–
O=C1CCCSCCCC(=O)CCCSCCC1	–	> 100 µM	–	> 100 µM	–	> 100 µM	–	–	–	–	–	> 100 µM	–	> 100 µM	–	> 100	–	> 100 µM	–	> 100
Cc1c2[nH]c3ccc(Br)cc3c2c(C)c2[nH]ccc(=O)c12	–	27.1 µM	–	33.2 µM	–	–	–	22.5	–	28	–	32 µM	–	28.2 µM	–	55.7	–	30 µM	–	–
Cc1ccc(C)c(-n2c(-c3ccc(Br)cc3)csc2=NC(=O)c2ccccc2F)c1	> 100	> 100 µM	> 100 µM	> 100 µM	> 100	> 100 µM	–	–	–	–	> 100	> 100 µM	3.1	> 100 µM	3.47 µM	> 100	> 100	> 100 µM	> 100	> 100
CCCCCCC(O)C/C=C/CCCCCC/C(C(=O)OC)=C(/O)C(=O)OCC (stereo not drawn)	–	> 100 µM	–	> 100 µM	–	> 100 µM	–	> 100	–	> 100	–	> 100 µM	–	> 100 µM	–	> 100	–	> 100 µM	–	–
Cc1ccc(C)c(NC(=O)CC2C(=O)Nc3ccccc3S2(=O)=O)c1 (stereo not drawn)	–	–	–	> 100 µM	–	> 100 µM	–	> 100	–	> 100	–	82.5 µM	–	> 100 µM	–	> 100	–	> 100 µM	–	–
CC(C)(C)C(=O)Nc1ccccc1Br	–	> 100 µM	–	> 100 µM	–	> 100 µM	–	> 100	–	> 100	–	–	–	> 100 µM	–	> 100	–	> 100 µM	–	–
